Like-named read-outs stand apart in the source and are kept apart here.

Series [1] has as its target Adrenergic α2A (Homo sapiens, UniProt P08913). Put plainly: biochemical.
In series [2] the target is Adrenergic α2C (Homo sapiens, UniProt P18825). Put plainly: biochemical.
In series [3] the target is T1, SST4 (Homo sapiens, UniProt P31391). Description: biochemical.
In series [4] the target is T1, SST4. Put plainly: In vitro functional assay, SST4. The conditions noted are these: agonist; highest concentration tested 10 μm. Format: cell-based.
Series [5] has as its target T2, HRH4 (Homo sapiens, UniProt Q9H3N8).
T2 construct: Eurofins Discover X, USA
Put plainly: β-arrestin GPCR internalization assay. Format: cell-based. The conditions noted are these: for EC50: read-out: RC50 (EC50).

Series [6] concerns PNT-induced neuropathic pain in pigs. Put plainly: Peripheral neuritis trauma (PNT)-induced neuropathic pain in pigs. Format: in vivo. The conditions noted are these: topical twice daily 0.1%, 0.33%, 1%. The text has this: 30 pigs were anaesthetized and an incision of 8-10 cm made through the skin and fascia on the left side of their lower backs, approximately 1 cm lateral and parallel to the spine line. The muscles were retracted and the sciatic nerve exposed. Following exposure, PNT was induced by loosely tying (1-2 mm apart) around the lateral half of the sciatic nerve bundle, three 3-0 silk threads, each previously immersed in complete Freund's adjuvant. 14 days after surgery and once chronic neuropathic pain had been established, treatment was initiated according to the protocol shown in Table 5. [table] At time points over the following 14 days, the animals were assessed for a variety of pain and motor parameters.

T1 sequence (P31391 whole entry): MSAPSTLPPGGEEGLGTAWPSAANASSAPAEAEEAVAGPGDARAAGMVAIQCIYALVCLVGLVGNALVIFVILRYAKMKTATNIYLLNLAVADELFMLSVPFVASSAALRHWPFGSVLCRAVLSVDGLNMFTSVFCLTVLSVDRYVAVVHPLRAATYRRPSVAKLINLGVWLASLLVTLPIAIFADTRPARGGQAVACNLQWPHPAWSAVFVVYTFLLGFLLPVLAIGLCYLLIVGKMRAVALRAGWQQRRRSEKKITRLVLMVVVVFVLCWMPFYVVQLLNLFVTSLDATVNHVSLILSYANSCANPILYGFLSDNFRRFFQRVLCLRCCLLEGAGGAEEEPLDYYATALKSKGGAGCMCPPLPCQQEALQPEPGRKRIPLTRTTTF
T2 sequence (Q9H3N8 whole entry): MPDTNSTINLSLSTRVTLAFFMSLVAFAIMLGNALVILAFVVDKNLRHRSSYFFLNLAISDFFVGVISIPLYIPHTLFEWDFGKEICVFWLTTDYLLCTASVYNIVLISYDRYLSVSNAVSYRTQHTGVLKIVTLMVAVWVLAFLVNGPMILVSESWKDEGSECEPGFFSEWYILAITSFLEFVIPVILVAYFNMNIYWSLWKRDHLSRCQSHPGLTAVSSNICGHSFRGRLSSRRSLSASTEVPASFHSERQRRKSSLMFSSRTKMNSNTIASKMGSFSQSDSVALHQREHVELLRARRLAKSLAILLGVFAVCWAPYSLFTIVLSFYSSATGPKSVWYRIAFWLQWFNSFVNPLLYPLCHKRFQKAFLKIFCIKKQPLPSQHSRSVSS
Adrenergic α2A, sequence (P08913 whole entry): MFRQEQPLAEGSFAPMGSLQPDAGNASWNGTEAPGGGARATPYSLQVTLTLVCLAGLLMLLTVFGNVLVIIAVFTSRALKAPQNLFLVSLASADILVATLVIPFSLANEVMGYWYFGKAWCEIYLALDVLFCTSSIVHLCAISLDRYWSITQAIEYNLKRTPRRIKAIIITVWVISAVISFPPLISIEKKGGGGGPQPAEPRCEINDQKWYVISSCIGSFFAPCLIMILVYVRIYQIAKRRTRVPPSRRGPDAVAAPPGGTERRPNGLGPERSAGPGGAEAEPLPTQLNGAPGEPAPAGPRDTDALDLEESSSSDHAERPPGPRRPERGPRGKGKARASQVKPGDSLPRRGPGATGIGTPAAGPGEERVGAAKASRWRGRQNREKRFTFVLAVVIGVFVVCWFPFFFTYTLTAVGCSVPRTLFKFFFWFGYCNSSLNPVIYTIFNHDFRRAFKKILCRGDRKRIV
Adrenergic α2C, sequence (P18825 whole entry): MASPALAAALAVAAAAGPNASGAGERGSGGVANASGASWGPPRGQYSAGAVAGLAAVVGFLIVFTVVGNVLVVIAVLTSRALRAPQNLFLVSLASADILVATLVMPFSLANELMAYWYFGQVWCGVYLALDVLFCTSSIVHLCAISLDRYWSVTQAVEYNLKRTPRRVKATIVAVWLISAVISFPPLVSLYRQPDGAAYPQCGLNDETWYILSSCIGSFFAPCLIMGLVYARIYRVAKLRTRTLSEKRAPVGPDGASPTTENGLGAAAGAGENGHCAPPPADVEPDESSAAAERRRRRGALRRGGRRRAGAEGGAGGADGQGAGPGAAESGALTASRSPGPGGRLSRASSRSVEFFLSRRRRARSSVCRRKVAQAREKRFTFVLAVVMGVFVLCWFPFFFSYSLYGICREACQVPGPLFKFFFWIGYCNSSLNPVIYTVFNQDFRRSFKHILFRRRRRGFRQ

The term inhibition denotes the change of the read-out against control, counted positive when it falls. Low values mean little suppression, high ones strong suppression. For the molecule `Clc1cccc(Cl)c1N=C1NCCN1` [clonidine], the figures for the inhibition at 10 µM in series [1], in series [2] and in series [3] were 94%, 97% and 13%, respectively.
By EC50 is commonly meant the midpoint of the concentration-response curve. By IC50 is commonly meant the concentration needed to halve the response being measured. As for `Cc1cccc(Cc2c[nH]cn2)c1C` [detomidine], the EC50 was 7.3 µM in series [4], 9.6 µM in series [5] (assay format: Agonist) and > 100 µM in series [5] (assay format: Inverse agonist). Also, the IC50 in series [5] (assay format: Antagonist, read-out: RC50 (IC50)) is > 100 µM. For the same molecule, in series [6] (14 days, versus placebo, from Day 0), the “Stimulus-evoked pain, Von Frey (VF) withdrawal threshold” value is “dose-dependent analgesic effect”. Further, the “Tactile allodynia, feather stimulation” value in series [6] (12-13 cm pigeon feather, as soon as Day 0) is on record as “dose-dependent decreased tactile allodynia”. The “Spontaneous pain behavior, General Behavioral Score (GBS)” value in series [6] (3 h and 6 h post-dose, from Day 0) is listed as “dose-dependent reduction in GBS scores”. Also, the “Open field motor test, locomotor activity / sedation” value in series [6] (throughout the study) was “did not affect locomotor activity at any dose level”. The molecule further gave an inhibition at 10 µM in series [3] of 35%.

These data come from US11185532B2, “Methods of treating pruritus” (Clexio Biosciences Ltd., priority 2019, dated 2021).
